Assays:
Assay type in all cases: in vivo, rat
[1] = system: jaundice model rats (Gunn rats); assay: Open field test; conditions: for Effect on number of grooming behaviors of Gunn rats (in words) / Effect on number of rearing behaviors of Gunn rats (in words) / Effect on spontaneous activity amount of Gunn rats (in words): compared with normal (Wistar) rats; for Spontaneous Activity Amount, Average / Number of Rearing Behaviors, Average / Number of Grooming Behaviors, Average: Gunn rats (j/j)
Experimental: Eltoprazine (E1357, TCI), which is one of the 5-HT1A/1B receptor agonists, was dissolved in an arbitrary solvent. 0.3 mg/kg of eltoprazine was subcutaneously administered to jaundice model rats (Gunn rats) at 9 to 10 weeks of age. Further, as control groups, only a solvent was subcutaneously administered to Gunn rats and Wistar rats at 9 to 10 weeks of age. Further, as a comparison group, 8OH-DPAT (O415005, FUJIFILM Wako Pure Chemical Corporation), which is one of 5-HT1A receptor agonists, was dissolved in an arbitrary solvent, and 1 mg/kg thereof was subcutaneously administered to Gunn rats. After placing each rat in its home cage for 60 minutes, an open field test was conducted for 60 minutes using the Scanet MV-40 (Melquest Ltd.). The spontaneous activity amount and the number of rearing behaviors were measured for each rat by counting how many times the rat crossed the center evenly spaced. The number of grooming behaviors was counted by visual inspection.
Eltoprazine (E1357, TCI), which is one of the 5-HT1A/1B receptor agonists, was dissolved in an arbitrary solvent. 0.3 mg/kg of eltoprazine was subcutaneously administered to jaundice model rats (Gunn rats) at 9 to 10 weeks of age. Further, as control groups, only a solvent was subcutaneously administered to Gunn rats and Wistar rats at 9 to 10 weeks of age. Further, as a comparison group, CGS12066A (Sigma-Aldrich Co. LLC), which is one of 5-HT1B receptor agonists, was dissolved in an arbitrary solvent, and 1 mg/kg thereof was subcutaneously administered to Gunn rats. After placing each rat in its home cage for 60 minutes, an open field test was conducted for 60 minutes using the Scanet MV-40 (Melquest Ltd.). The spontaneous activity amount and the number of rearing behaviors for each rat were measured by counting how many times the rat crossed the center evenly spaced. The number of grooming behaviors was counted by visual inspection.

Gunn rats [2] = assay: Startle response prepulse inhibition (PPI) test; conditions: 0.3 mg/kg subcutaneous, 80 dB prepulse
Experimental: Eltoprazine (E1357, TCI), which is one of 5-HT1A/1B receptor agonists, was dissolved in a physiological saline solution. Only a solvent, 0.3 mg/kg of eltoprazine, or 1 mg/kg of eltoprazine was administered subcutaneously to Gunn rats at 9 to 10 weeks of age. For control, only a solvent was administered to Wistar rats as normal rats. One hour after the administration, a startle response prepulse inhibition (PPI) test was performed. The PPI test was conducted using the SR-LAB-Startle Response System (San Diego Institute, USA). Each rat subjected to the measurement was placed in a measurement chamber and acclimated with a 65 dB background white noise for 5 minutes before the start of stimulation. The startle response to a 120 dB auditory stimulation was measured using a piezoelectric sensor attached to the bottom of the chamber. The test session consisted of a total of 50 randomized trials, including no-stimulus (white noise only), 20 ms of 120 dB pulse stimulation, and stimulation with 20 ms of 70 dB or 80 dB prepulse 100 ms before the 120 dB pulse. The interval between the trials was 20 to 60 seconds (average: 40 seconds). The percentage PPI was calculated using the following formula: 100−[(startle response to prepulse-pulse stimulation trial−no-stimulation trial)/(pulse-alone trial−no-stimulation trial)×100].

Gunn rats [3] = assay: Social interaction test; conditions: for Attacking Behavior, Average / Following Behavior, Average / Sniffing Behavior/Grooming Behavior, Average: Gunn rats (j/j), 1 h after administration, 10 min recording; for Sniffing Behavior/Grooming Behavior, Average: duration of sniffing or grooming the partner
Experimental: Eltoprazine (E1357, TCI), which is one of 5-HT1A/1B receptor agonists, was dissolved in a physiological saline solution. Only a solvent, 0.3 mg/kg of eltoprazine, or 1 mg/kg of eltoprazine was administered subcutaneously to Gunn rats at 9 to 10 weeks of age. For control, only a solvent was administered to Wistar rats as normal rats. One hour after the administration, two rats of the same type (same drug, same dose, same genetic type) were placed together in a single cage, and their behaviors were video-recorded from above for 10 minutes. The recorded video was visually analyzed, and the number of behaviors of following the partner, the attacking behavior, and the duration of sniffing or grooming the partner were measured.

[4] = 0.3 mg/kg or 1 mg/kg subcutaneous, compared with normal rats

For `CCCN(CCC)C1CCc2cccc(O)c2C1` (centres unmarked) [8OH-DPAT], the “Effect on number of grooming behaviors of Gunn rats (in words)” value ([1]; 1 mg/kg subcutaneous) was “levels comparable to those of normal rats”, the “Effect on number of rearing behaviors of Gunn rats (in words)” value ([1]; 1 mg/kg subcutaneous) was “abnormal number of rearing behaviors” and the “Effect on spontaneous activity amount of Gunn rats (in words)” value (“Effect on spontaneous activity amount” below) ([1]; 1 mg/kg subcutaneous) was “levels comparable to those of normal rats”. For the same molecule, the “Spontaneous Activity Amount, Average” value ([1]; Table 2, 1 mg/kg subcutaneous, 60 min home cage then 60 min open field) was 2681 count, the “Number of Rearing Behaviors, Average” value ([1]; Table 3, 1 mg/kg subcutaneous, 60 min open field) was 0.3 times and the “Number of Grooming Behaviors, Average” value ([1]; Table 4, 1 mg/kg subcutaneous, 60 min open field, visual inspection) was 5.5 count.
In the case of `CN1CCN(c2nc3cc(C(F)(F)F)ccc3n3cccc23)CC1` [CGS12066A], the “Effect on number of grooming behaviors of Gunn rats (in words)” value ([1]; 1 mg/kg subcutaneous) is reported as “did not improve”, the “Effect on number of rearing behaviors of Gunn rats (in words)” value ([1]; 1 mg/kg subcutaneous) is reported as “levels comparable to those of normal rats” and the “Effect on spontaneous activity amount” value ([1]; 1 mg/kg subcutaneous) is reported as “levels comparable to those of normal rats”. The “Spontaneous Activity Amount, Average” value ([1]; Table 5, 1 mg/kg subcutaneous, 60 min open field) was 4030 count, the “Number of Rearing Behaviors, Average” value ([1]; Table 6, 1 mg/kg subcutaneous, 60 min open field) was 47 count and the “Number of Grooming Behaviors, Average” value ([1]; Table 7, 1 mg/kg subcutaneous, 60 min open field) was 19.6 count.
For `c1cc2c(c(N3CCNCC3)c1)OCCO2` [eltoprazine, 5-(piperazin-1-yl)-2,3-dihydro-1,4-benzodioxine], the “Effect on percentage PPI of Gunn rats (in words)” value (Gunn rats [2]) was “tendency to improve”, the “Percentage PPI, Average” value (Gunn rats [2]; 120 dB pulse, Gunn rats (j/j), 1 h after administration) was 63.6% and the “Effect on attacking behavior of Gunn rats (in words)” value (Gunn rats [3]; [4]) was “levels comparable to those of normal rats”. The “Effect on duration of sniffing or grooming the partner in Gunn rats (in words)” value (Gunn rats [3]; [4]) was “normal level”, the “Effect on following behavior of Gunn rats (in words)” value (Gunn rats [3]; [4]) was “levels comparable to those of normal rats” and the “Attacking Behavior, Average” value (Gunn rats [3]; 0.3 mg/kg subcutaneous) was 2 count. The “Following Behavior, Average” value (Gunn rats [3]; 0.3 mg/kg subcutaneous) was 2.16 count, the “Attacking Behavior, Average” value (Gunn rats [3]; 1 mg/kg subcutaneous) was 0.16 count and the “Following Behavior, Average” value (Gunn rats [3]; 1 mg/kg subcutaneous) was 3.83 count. The “Sniffing Behavior/Grooming Behavior, Average” value (Gunn rats [3]; 0.3 mg/kg subcutaneous) was 52 count, the “Sniffing Behavior/Grooming Behavior, Average” value (Gunn rats [3]; 1 mg/kg subcutaneous) was 41.5 count and the “Effect on number of grooming behaviors of Gunn rats (in words)” value ([1]; 0.3 mg/kg subcutaneous) was “levels comparable to those of normal rats”. For the same molecule, the “Effect on number of rearing behaviors of Gunn rats (in words)” value ([1]; 0.3 mg/kg subcutaneous) was “levels comparable to those of normal rats”, the “Effect on spontaneous activity amount” value ([1]; 0.3 mg/kg subcutaneous) was “levels comparable to those of normal rats” and the “Spontaneous Activity Amount, Average” value ([1]; Table 2, 0.3 mg/kg subcutaneous, 60 min home cage then 60 min open field) was 4640 count. The “Number of Rearing Behaviors, Average” value ([1]; Table 3, 0.3 mg/kg subcutaneous, 60 min open field) was 61.5 times, the “Number of Grooming Behaviors, Average” value ([1]; Table 4, 0.3 mg/kg subcutaneous, 60 min open field, visual inspection) was 8.5 count and the “Spontaneous Activity Amount, Average” value ([1]; Table 5, 0.3 mg/kg subcutaneous, 60 min open field) was 4640 count. The “Number of Rearing Behaviors, Average” value ([1]; Table 6, 0.3 mg/kg subcutaneous, 60 min open field) was 61.5 count and the “Number of Grooming Behaviors, Average” value ([1]; Table 7, 0.3 mg/kg subcutaneous, 60 min open field) was 8.5 count.

Source: patent US20260272915A1, “PHARMACEUTICAL COMPOSITION FOR TREATING, PREVENTING, OR MANAGING BILIRUBIN-INDUCED NEUROLOGICAL DYSFUNCTION, PSYCHIATRIC DISORDERS ASSOCIATED WITH JAUNDICE, OR PSYCHIATRIC DISORDERS CAUSED BY BILIRUBIN UDP-GLUCURONOSYLTRANSFERASE GENE MUTATIONS” (priority 2023, published 2026)
